Assay results from patent US9598440B2, “Inhibitors of IRAK4 activity” (MERCK SHARP & DOHME CORP., priority 2012, dated 2017).
pIC50: −log10 of the molar value.

biological target: IRAK4 (Homo sapiens (Human), UniProt Q9NWZ3); assay: Determination of IRAK4 kinase activity (IMAP fluorescence polarization, phosphorylation of fluorescent peptide substrate); type: biochemical; conditions: 0.5 nM GST tagged IRAK4, 100 nM peptide substrate RP7030, 100 μM ATP, 30 minutes at 25° C.
Summary of the method: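 GST-tagged IRAK4 (0.5 nM) phosphorylated 100 nM fluorescent peptide substrate with 100 µM ATP in Tris-HCl pH 7.2, 1 mM MgCl2, 1 mM DTT, 0.01% Tween 20 for 30 min at 25 °C. Phosphorylation read by IMAP nanoparticle binding as fluorescence polarization increase.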

IRAK4, sequence (Q9NWZ3 whole entry): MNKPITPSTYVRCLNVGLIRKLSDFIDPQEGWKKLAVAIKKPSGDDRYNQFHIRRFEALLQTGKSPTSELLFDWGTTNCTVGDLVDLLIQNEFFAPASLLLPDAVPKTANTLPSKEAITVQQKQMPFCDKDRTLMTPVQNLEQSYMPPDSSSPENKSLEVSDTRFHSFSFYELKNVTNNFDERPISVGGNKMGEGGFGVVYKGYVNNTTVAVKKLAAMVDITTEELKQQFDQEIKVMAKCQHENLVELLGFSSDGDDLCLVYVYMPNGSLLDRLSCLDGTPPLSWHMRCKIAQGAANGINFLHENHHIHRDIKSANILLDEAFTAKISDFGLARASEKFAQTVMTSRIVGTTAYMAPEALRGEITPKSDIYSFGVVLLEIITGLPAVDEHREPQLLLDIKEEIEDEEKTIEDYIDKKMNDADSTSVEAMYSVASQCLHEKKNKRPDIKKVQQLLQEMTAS

Structure (SMILES)	pIC50
CN(C)c1ccc(Nc2ncc(-c3nc4cnccc4s3)c(N[C@@H]3C[C@H](CO)[C@@H](O)[C@H]3O)n2)cc1 [Example 66, (1R,2S,3R,5R)-3-((2-((4-(dimethylamino)phenyl)amino)-5-(thiazolo[4,5-c]pyridin-2-yl)pyrimidin-4-yl)amino)-5-(hydroxymethyl)cyclopentane-1,2-diol]	8.40
Cc1cc(Nc2ncc(-c3nc4cnccc4s3)c(N[C@@H]3C[C@H](CO)[C@@H](O)[C@H]3O)n2)cc(C)n1 [Example 67, (1R,2S,3R,5R)-3-((2-((2,6-dimethylpyridin-4-yl)amino)-5-(thiazolo[4,5-c]pyridin-2-yl)pyrimidin-4-yl)amino)-5-(hydroxymethyl)cyclopentane-1,2-diol]	9.30
Cc1cc(Nc2ncc(-c3nc4ccncc4s3)c(N[C@@H]3C[C@H](CO)[C@@H](O)[C@H]3O)n2)cc(C)n1 [Example 68, (1R,2S,3R,5R)-3-((2-((2,6-dimethylpyridin-4-yl)amino)-5-(thiazolo[5,4-c]pyridin-2-yl)pyrimidin-4-yl)amino)-5-(hydroxymethyl)cyclopentane-1,2-diol]	9.70
Cc1cc(Nc2ncc(-c3nc4cnccc4s3)c(N[C@@H]3C[C@H](CO)[C@@H](O)[C@H]3O)n2)ccn1 [Example 69, (1S,2R,3R,5R)-3-(hydroxymethyl)-5-((2-((2-methylpyridin-4-yl)amino)-5-(thiazolo[4,5-c]pyridin-2-yl)pyrimidin-4-yl)amino)cyclopentane-1,2-diol]	8.52
COc1cc(Nc2ncc(-c3nc4cnccc4s3)c(N[C@@H]3C[C@H](CO)[C@@H](O)[C@H]3O)n2)ccn1 [Example 71, 6-(((1R,2S,3R,4R)-2,3-dihydroxy-4-(hydroxymethyl)cyclopentyl)amino)-2-((2-methoxypyridin-4-yl)amino)-5-(thiazolo[4,5-c]pyridin-2-yl)pyrimidine]	8.15
CN(C)c1cccc(Nc2ncc(-c3nc4cnccc4s3)c(N[C@@H]3C[C@H](CO)[C@@H](O)[C@H]3O)n2)c1 [Example 73, 6-(((1R,2S,3R,4R)-2,3-dihydroxy-4-(hydroxymethyl)cyclopentyl)amino)-2-((3-(dimethylamino)phenyl)amino)-5-(thiazolo[4,5-c]pyridin-2-yl)pyrimidine]	7.92
OC[C@H]1C[C@@H](Nc2nc(Nc3cncnc3)ncc2-c2nc3ccncc3s2)[C@H](O)[C@@H]1O [Example 74, 6-(((1R,2S,3R,4R)-2,3-dihydroxy-4-(hydroxymethyl)cyclopentyl)amino)-2-(pyrimidin-5-ylamino)-5-(thiazolo[5,4-c]pyridin-2-yl)pyrimidine]	8.22
COc1cc(Nc2ncc(-c3nc4ccncc4s3)c(N[C@@H]3C[C@H](CO)[C@@H](O)[C@H]3O)n2)ccn1 [Example 75, 6-(((1R,2S,3R,4R)-2,3-dihydroxy-4-(hydroxymethyl)cyclopentyl)amino)-2-((2-methoxypyridin-4-yl)amino)-5-(thiazolo[5,4-c]pyridin-2-yl)pyrimidine]	8.70
OC[C@H]1C[C@@H](Nc2nc(NC3CCC3)ncc2-c2nc3cnccc3s2)[C@H](O)[C@@H]1O [Example 76, 2-(cyclobutylamino)-6-(((1R,2S,3R,4R)-2,3-dihydroxy-4-(hydroxymethyl)cyclopentyl)amino)-5-(thiazolo[4,5-c]pyridin-2-yl)pyrimidine]	6.25
Cc1cc(Nc2ncc(-c3nc4ccncc4s3)c(N[C@@H]3C[C@H](CO)[C@@H](O)[C@H]3O)n2)ccn1 [Example 77, 6-(((1R,2S,3R,4R)-2,3-dihydroxy-4-(hydroxymethyl)cyclopentyl)amino)-2-((2-methylpyridin-4-yl)amino)-5-(thiazolo[5,4-c]pyridin-2-yl)pyrimidine]	8.10
OC[C@H]1C[C@@H](Nc2nc(Nc3cccnc3)ncc2-c2nc3ccncc3s2)[C@H](O)[C@@H]1O [Example 78, 6-(((1R,2S,3R,4R)-2,3-dihydroxy-4-(hydroxymethyl)cyclopentyl)amino)-2-(pyridin-3-ylamino)-5-(thiazolo[5,4-c]pyridin-2-yl)pyrimidine]	7.89
Cc1cc(Nc2ncc(-c3nc(-c4ccccc4)cs3)c(N[C@@H]3C[C@H](CO)[C@@H](O)[C@H]3O)n2)ccn1 [Example 79, 6-(((1R,2S,3R,4R)-2,3-dihydroxy-4-(hydroxymethyl)cyclopentyl)amino)-2-((2-methylpyridin-4-yl)amino)-5-(4-phenylthiazol-2-yl)pyrimidine]	8.10
COc1cc(Nc2ncc(-c3nc(-c4ccccc4)cs3)c(N[C@@H]3C[C@H](CO)[C@@H](O)[C@H]3O)n2)ccn1 [Example 80, 6-(((1R,2S,3R,4R)-2,3-dihydroxy-4-(hydroxymethyl)cyclopentyl)amino)-2-((2-methoxypyridin-4-yl)amino)-5-(4-phenylthiazol-2-yl)pyrimidine]	7.01
OC[C@H]1C[C@@H](Nc2nc(Nc3cncnc3)ncc2-c2nc(-c3ccccc3)cs2)[C@H](O)[C@@H]1O [Example 81, 6-(((1R,2S,3R,4R)-2,3-dihydroxy-4-(hydroxymethyl)cyclopentyl)amino)-5-(4-phenylthiazol-2-yl)-2-(pyrimidin-5-ylamino)pyrimidine]	7.03

The next lines start with the values.

pIC50	Structure (SMILES)
5.49	OC[C@H]1C[C@@H](Nc2nc(Nc3cccnc3)ncc2-c2nc(-c3ccccc3)cs2)[C@H](O)[C@@H]1O [Example 82, 6-(((1R,2S,3R,4R)-2,3-dihydroxy-4-(hydroxymethyl)cyclopentyl)amino)-5-(4-phenyithiazol-2-yl)-2-(pyridin-3-ylamino)pyrimidine]
8.99	Nc1ncc(-c2nc3cccnc3s2)c(N[C@@H]2C[C@H](CO)[C@@H](O)[C@H]2O)n1 [Example 83, (1R,2S,3R,5R)-3-((2-amino-5-(thiazolo[5,4-b]pyridin-2-yl)pyrimidin-4-yl)amino)-5-(hydroxymethyl)cyclopentane-1,2-diol]
6.37	Cc1nc(Nc2ccnc(F)c2)nc(N[C@@H]2C[C@H](CO)[C@@H](O)[C@H]2O)c1-c1nc2ccccc2s1 [Example 86, (1R,2S,3R,5R)-3-((5-(benzo[d]thiazol-2-yl)-2-((2-fluoropyridin-4-yl)amino)-6-methylpyrimidin-4-yl)amino)-5-(hydroxymethyl)cyclopentane-1,2-diol]
6.92	Cc1cc(Nc2nc(C)c(-c3nc4ccccc4s3)c(N[C@@H]3C[C@H](CO)[C@@H](O)[C@H]3O)n2)cc(C)n1 [Example 87, (1R,2S,3R,5R)-3-((5-(benzo[d]thiazol-2-yl)-2-((2,6-dimethylpyridin-4-yl)amino)-6-methylpyrimidin-4-yl)amino)-5-(hydroxymethyl)cyclopentane-1,2-diol]
5.20	Cc1nc(Nc2ccc(Cl)cc2)nc(N[C@@H]2C[C@H](CO)[C@@H](O)[C@H]2O)c1-c1nc2ccccc2s1 [Example 88, (1R,2S,3R,5R)-3-((5-(benzo[d]thiazol-2-yl)-2-((4-chlorophenyl)amino)-6-methylpyrimidin-4-yl)amino)-5-(hydroxymethyl)cyclopentane-1,2-diol]
5.22	Cc1nc(NCCCN2CCN(C)CC2)nc(N[C@@H]2C[C@H](CO)[C@@H](O)[C@H]2O)c1-c1nc2ccccc2s1 [Example 89, (1R,2S,3R,5R)-3-((5-(benzo[d]thiazol-2-yl)-6-methyl-2-((3-(4-methylpiperazin-1-yl)propyl)amino)pyrimidin-4-yl)amino)-5-(hydroxymethyl)cyclopentane-1,2-diol]
5.30	Cc1nc(NC2CC2)nc(N[C@@H]2C[C@H](CO)[C@@H](O)[C@H]2O)c1-c1nc2ccccc2s1 [Example 90, (1R,2S,3R,5R)-3-((5-(benzo[d]thiazol-2-yl)-2-(cyclopropylamino)-6-methylpyrimidin-4-yl)amino)-5-(hydroxymethyl)cyclopentane-1,2-diol]
4.94	Cc1nc(N2CCC(N)CC2)nc(N[C@@H]2C[C@H](CO)[C@@H](O)[C@H]2O)c1-c1nc2ccccc2s1 [Example 92, (1R,2S,3R,5R)-3-((2-(4-aminopiperidin-1-yl)-5-(benzo[d]thiazol-2-yl)-6-methylpyrimidin-4-yl)amino)-5-(hydroxymethyl)cyclopentane-1,2-diol]
4.88	Cc1nc(NCC2CCNCC2)nc(N[C@@H]2C[C@H](CO)[C@@H](O)[C@H]2O)c1-c1nc2ccccc2s1 [Example 93, (1R,2S,3R,5R)-3-((5-(benzo[d]thiazol-2-yl)-6-methyl-2-((piperidin-4-ylmethyl)amino)pyrimidin-4-yl)amino)-5-(hydroxymethyl)cyclopentane-1,2-diol]
6.06	COc1cccc(Nc2nc(C)c(-c3nc4ccccc4s3)c(N[C@@H]3C[C@H](CO)[C@@H](O)[C@H]3O)n2)c1 [Example 94, (1R,2S,3R,5R)-3-((5-(benzo[d]thiazol-2-yl)-2-((3-methoxyphenyl)amino)-6-methylpyrimidin-4-yl)amino)-5-(hydroxymethyl)cyclopentane-1,2-diol]
5.33	Cc1nc(N)nc(N[C@@H]2C[C@H](CO)[C@@H](O)[C@H]2O)c1-c1nc(Br)cs1 [Example 95, (1R,2S,3R,5R)-3-((2-amino-5-(4-bromothiazol-2-yl)-6-methylpyrimidin-4-yl)amino)-5-(hydroxymethyl)cyclopentane-1,2-diol]
4.95	Cc1nc(Nc2ccccn2)nc(N[C@@H]2C[C@H](CO)[C@@H](O)[C@H]2O)c1-c1nc2ccccc2s1 [Example 97, (1R,2S,3R,5R)-3-((5-(benzo[d]thiazol-2-yl)-6-methyl-2-(pyridin-2-ylamino)pyrimidin-4-yl)amino)-5-(hydroxymethyl)cyclopentane-1,2-diol]
6.02	Cc1nc(N2CCC(C)CC2)nc(N[C@@H]2C[C@H](CO)[C@@H](O)[C@H]2O)c1-c1nc2ccccc2s1 [Example 98, (1R,2S,3R,5R)-3-((5-(benzo[d]thiazol-2-yl)-6-methyl-2-(4-methylpiperidin-1-yl)pyrimidin-4-yl)amino)-5-(hydroxymethyl)cyclopentane-1,2-diol]
